As usually defined, the ED50 is the midpoint of the dose-response relation.

Each structure is given as a SMILES string.

From patent US4647586A, “Pharmaceutical oil-in-water type micro-emulsion” (priority 1984, dated 1987) come the findings set out here.

Data set [1] concerns abnormal 3-legged gait (brewers yeast-inflamed paw). The data set is described as follows: Reversal of abnormal 3-legged gait in rats (analgesic activity). Particulars: Rattus norvegicus, iv, read-out: ED50 (dose causing at least 50% reversal of gait score in 50% of the rats). Type of data set: in vivo, SD-strain male rats. Here is the method: (a) Experimental animals: SD-strain male rats (120-165 g).
(§1) (b) Test drugs: The same as in A-1 [Test 2].
A 40% suspension of dried brewers yeast in physiological saline was injected (0.25 ml/rat) subcutaneously into the planter surface of the left hind paw of each rat. Three hours later, the walking gait on a wire mesh platform was assessed for each rat.
0 = Normal gait in the presence of a severely
0.5 = As above, with intermittent mild limping.
1.0 = Constant limping, but continuous use of
1.5 = Limping with occasional 3-legged gait
2.0 = Continous 3-Legged gait and/or only the
Any rat not showing a gait score of 2 was eliminated from this test. Drugs and vehicles were then administered intravenously. Measurements of the gait were made at 1, 2, 3 and 4 hours after drug administration.

In data set [2] the test system is brewer's yeast-induced fever. The data set is described as follows: Effects on body temperature in pyretic rats (antipyretic activity). It counts as in vivo, SD-strain male rats. Particulars: iv, 17 h, read-out: ED50 (dose reducing body temperature by at least 1.5° C. in 50% of the rats). The protocol:
(a) Experimental animals SD-strain male rats (120-185 g).
as §1
Male Sprague-Dawley rats, weighing 120-185 g, were injected subcutaneously in the nape of the neck with 2 ml of a 20% suspension of dried brewers yeast in physiological saline. Drugs and vehicles were administered intravenously 17 hours after treatment of yeast suspension. Rectal temperature was recorded with a thermistor type thermometer (Natsume Seisakusho, BMA-77 Type) just prior to drug administration and at 1/2, 1, 2 and 4 hours after drug administration.

Data set [3] in a line: Distribution to the tissue. Particulars: 10 mg/kg tail vein, as 4-biphenylylacetic acid.
Procedure: (a) Experimental animals: Wistar-strain male rats (body weight 60-220 g), 6 per group.
The rats were periodically killed, and the major organs were extracted. The concentration of the drug in the tissues were measured by the conventional HPLC method.

Consider `O=C([O-])Cc1ccc(-c2ccccc2)cc1.[Na+]`, for which the ED50 came out at 7.1 mg/kg in data set [1] and 2.6 mg/kg in data set [2]. Also, the “Tissue concentration at 30 seconds after administration” value in data set [3] is “concentrations above those at which they showed a pharmacological activity”.
